Laboratory results reported in the supplement of paper PMC10307832.

Key:
Assay in all cases: relative viability (nuclei count vs DMSO), 5 days (fraction); higher = more cells survive
RO-3306 = compound: C1=CC2=C(C=CC(=C2)C=C3C(=O)NC(=NCC4=CC=CS4)S3)N=C1 [RO-3306]
Summary of the method: (§1)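 In 1536-well plates, lung cancer cell lines rested overnight at 37 °C before five library-drug doses (not always all listed), √10 apart, were pinned onto vehicle-anchored plates. Nuclei were counted with MetaXpress from 4× Hoechst images taken after 5 days without medium change. Viability compares treated-well with vehicle-well nuclei as a median over plates, and plates needed control CV below 25% plus at least one doubling to pass.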

Foretinib = compound: COc1cc2c(Oc3ccc(NC(=O)C4(C(=O)Nc5ccc(F)cc5)CC4)cc3F)ccnc2cc1OCCCN1CCOCC1 [Foretinib] (anchor plate); settings: 0.25 µM
Summary of the method: as §1

[1] = compound: O=S(=O)(c1ccccc1)N(CC(F)(F)F)c1ccc(C(O)(C(F)(F)F)C(F)(F)F)cc1
Summary of the method: as §1

| Cell Line | relative viability (RO-3306; 0.01 µM) | relative viability (RO-3306; 0.03162 µM) | relative viability (RO-3306; 0.1 µM) | relative viability (RO-3306; 0.3162 µM) | relative viability (RO-3306; 1 µM) | relative viability (Foretinib) | relative viability ([1]; 0.8 µM) | relative viability ([1]; 2.53 µM) | relative viability ([1]; 8 µM) |
| --- | --- | --- | --- | --- | --- | --- | --- | --- | --- |
| 201T | 1.06 | 0.969 | 0.956 | 0.987 | 0.746 | 1.16 | 1.02 | 0.928 | 1.06 |
| A549 | 1.13 | 0.811 | 0.994 | 1 | 1.05 | 0.951 | 1.07 | 0.914 | 0.886 |
| A-427 | 1.06 | 0.94 | 1 | 1.02 | 0.574 | 1.08 | 1.08 | 0.929 | 1.21 |
| ABC-1 | 0.94 | 0.769 | 0.901 | 0.887 | 0.817 | 1.07 | 0.758 | 0.843 | 1.03 |
| BEN | 0.903 | 0.888 | 0.894 | 1.03 | 0.976 | 0.668 | 0.991 | 0.895 | 0.87 |
| CAL-12T | 1.01 | 0.884 | 0.906 | 0.977 | 1.07 | 1.13 | 0.88 | 0.804 | 0.811 |
| COR-L23 | 1.03 | 0.892 | 1.04 | 1.04 | 1.14 | 0.949 | 1.13 | 0.921 | 0.858 |
| COR-L 105 | 0.859 | 0.784 | 0.798 | 0.906 | 0.948 | 1.07 | 0.947 | 0.786 | 0.918 |
| Calu-6 | 1.12 | 0.893 | 1.02 | 1 | 1.06 | 0.861 | 0.982 | 0.876 | 0.858 |
| ChaGo-K-1 | 1.03 | 0.933 | 1.01 | 1.04 | 0.699 | 0.921 | 1.14 | 0.998 | 1.06 |
| EBC-1 | 1.04 | 0.807 | 1.01 | 1.14 | 1.01 | 0.108 | 0.934 | 0.769 | 0.721 |
| EKVX | 1 | 0.888 | 1 | 1.03 | 0.915 | 0.886 | 0.93 | 0.893 | 0.836 |
| EMC-BAC-2 | 0.943 | 0.844 | 0.915 | 1.12 | 0.616 | 1.02 | 0.996 | 1.01 | 0.966 |
| EPLC-272H | 0.866 | 0.73 | 0.921 | 0.901 | 0.791 | 0.723 | 0.942 | 0.929 | 0.982 |
| H3255 | 1.02 | 0.913 | 0.995 | 0.946 | 0.93 | 0.881 | 0.913 | 0.808 | 0.84 |
| HARA | 0.96 | 0.909 | 0.886 | 0.985 | 1.03 | 0.959 | 0.933 | 0.803 | 0.962 |
| HCC-15 | 1.13 | 0.897 | 0.998 | 1.07 | 0.992 | 1.05 | 1.04 | 0.871 | 0.861 |
| HCC-44 | 0.985 | 1 | 1.02 | 0.957 | 0.901 | – | 0.98 | 0.988 | 0.97 |
| HCC-78 | 1.09 | 0.878 | 0.981 | 1.02 | 0.924 | 0.587 | 0.892 | 0.786 | 0.851 |

| Cell Line | relative viability (RO-3306; 0.01 µM) | relative viability (RO-3306; 0.03162 µM) | relative viability (RO-3306; 0.1 µM) | relative viability (RO-3306; 0.3162 µM) | relative viability (RO-3306; 1 µM) | relative viability (Foretinib) | relative viability ([1]; 0.8 µM) | relative viability ([1]; 2.53 µM) | relative viability ([1]; 8 µM) |
| --- | --- | --- | --- | --- | --- | --- | --- | --- | --- |
| HCC-366 | 1.12 | 0.951 | 0.966 | 1.09 | 1.06 | 0.942 | 1.12 | 0.979 | 0.983 |
| HCC-827 | 1.02 | 0.955 | 1.03 | 1.03 | 1.06 | 0.976 | 1.1 | 1.02 | 0.975 |
| HOP-62 | 1.09 | 0.966 | 1.06 | 1.01 | 1.07 | 1.12 | 1.02 | 0.923 | 0.837 |
| IA-LM | 1.05 | 0.683 | 0.89 | 1.05 | 0.869 | 1.13 | 0.924 | 0.829 | 0.756 |
| LC-2-ad | 0.955 | 0.85 | 0.929 | 1.02 | 0.95 | 0.973 | 0.992 | 0.936 | 0.892 |
| LCLC-97TM1 | 0.895 | 0.799 | 0.932 | 1.04 | 0.942 | 0.937 | 0.796 | 0.837 | 0.885 |
| LCLC-103H | 1.01 | 0.935 | 1.02 | 0.998 | 0.923 | 0.805 | 1.09 | 0.966 | 1.07 |
| LK-2 | 1.07 | 0.855 | 0.922 | 1.17 | 1.02 | 1.18 | 1.06 | 0.894 | 0.98 |
| LOU-NH91 | 0.931 | 0.914 | 0.934 | 0.918 | 0.852 | 0.94 | 0.984 | 0.968 | 1.05 |
| LU99A | 0.983 | 0.831 | 0.876 | 0.912 | 0.817 | 0.827 | 1.09 | 0.885 | 0.875 |
| LXF-289 | 1.01 | 1 | 1.01 | 1.02 | 1 | 0.991 | 0.949 | 0.882 | 0.843 |
| NCI-H23 | 0.958 | 0.715 | 0.837 | 1.03 | 1.02 | 0.969 | 1.09 | 1.07 | 1.15 |
| NCI-H322M | 0.86 | 0.908 | 0.854 | 0.954 | 1.01 | 1.01 | 1.08 | 0.966 | 0.866 |
| NCI-H358 | 1.13 | 0.779 | 0.902 | 0.947 | 0.766 | 0.694 | 0.815 | 0.796 | 0.826 |
| NCI-H441 | 1.09 | 0.795 | 1.11 | 1.13 | 1.04 | 0.994 | 1.12 | 0.896 | 0.941 |
| NCI-H460 | 1.05 | 0.956 | 0.983 | 1.02 | 1.04 | 1 | 1.06 | 0.949 | 0.943 |
| NCI-H520 | 1.05 | 0.834 | 1.01 | 1.04 | 0.957 | 0.745 | 1.1 | 0.963 | 0.982 |
| NCI-H522 | 1.09 | 0.867 | 0.827 | 0.875 | 0.962 | – | 1.06 | 0.954 | 1.15 |
| NCI-H596 | 0.947 | 0.807 | 0.871 | 1.03 | 0.94 | 0.881 | 0.952 | 0.942 | 0.908 |

| Cell Line | relative viability (RO-3306; 0.01 µM) | relative viability (RO-3306; 0.03162 µM) | relative viability (RO-3306; 0.1 µM) | relative viability (RO-3306; 0.3162 µM) | relative viability (RO-3306; 1 µM) | relative viability (Foretinib) | relative viability ([1]; 0.8 µM) | relative viability ([1]; 2.53 µM) | relative viability ([1]; 8 µM) |
| --- | --- | --- | --- | --- | --- | --- | --- | --- | --- |
| NCI-H647 | 0.881 | 0.841 | 0.928 | 1.07 | 0.864 | 1.17 | 1.14 | 0.849 | 0.877 |
| NCI-H650 | 0.834 | 0.803 | 0.938 | 0.992 | 0.945 | 1.02 | 0.946 | 0.814 | 0.989 |
| NCI-H661 | 0.995 | 0.951 | 0.978 | 0.963 | 1.06 | 0.971 | 1.04 | 0.982 | 0.971 |
| NCI-H727 | 0.892 | 0.704 | 1.01 | 1 | 1.2 | 0.892 | 1.08 | 0.702 | 0.898 |
| NCI-H838 | 1.03 | 0.908 | 0.992 | 1.07 | 0.95 | 1.03 | 1.12 | 0.962 | 1.02 |
| NCI-H1299 | 1.06 | 1 | 1.03 | 1.04 | 1.09 | 1.06 | 1.01 | 1.02 | 0.952 |
| NCI-H1355 | 1.12 | 0.907 | 1.01 | 1.01 | 0.914 | 0.973 | 1.05 | 0.918 | 0.884 |
| NCI-H1395 | 0.895 | 0.869 | 0.729 | 0.887 | 0.707 | 1 | 0.867 | 0.894 | 0.914 |
| NCI-H1437 | 1.03 | 0.942 | 0.926 | 1.03 | 1.08 | 1.24 | 0.95 | 0.877 | 0.849 |
| NCI-H1563 | 0.966 | 0.887 | 0.936 | 0.993 | 0.953 | 0.93 | 0.95 | 1.02 | 0.947 |
| NCI-H1623 | 0.99 | 0.909 | 0.958 | 1.08 | 0.844 | 0.899 | 0.928 | 0.836 | 0.856 |
| NCI-H1648 | 0.863 | – | 0.877 | 0.858 | 1.01 | – | 0.793 | 0.58 | 0.518 |
| NCI-H1650 | 0.885 | 0.729 | 0.795 | 0.881 | 0.728 | 1.22 | 0.929 | 0.897 | 0.936 |
| NCI-H1651 | 0.978 | 0.875 | 0.994 | 1.03 | 0.934 | 0.763 | 1.05 | 0.965 | 0.944 |
| NCI-H1666 | 0.962 | 0.904 | 0.938 | 0.941 | 0.885 | 0.977 | 0.939 | 0.925 | 0.827 |
| NCI-H1703 | 1.17 | 0.837 | 0.969 | 0.751 | 0.906 | 0.347 | 0.846 | 0.776 | 0.696 |
| NCI-H1734 | 1.01 | 0.808 | 0.912 | 0.991 | 0.9 | 0.84 | 1.21 | 1.01 | 0.887 |
| NCI-H1755 | 1.02 | 1 | 0.98 | 0.985 | 1.02 | 0.915 | 1.02 | 0.982 | 0.928 |
| NCI-H1792 | 0.813 | – | 0.824 | 0.908 | 0.782 | – | 0.79 | 0.724 | 0.858 |
